# Key:
# HIPK2-Smad3 interaction = target: T1, HIPK2-Smad3 interaction (Homo sapiens, UniProt Q9H2X6); assay: His6-HIPK2 cobalt resin pull-down of endogenous Smad3 in 293T cells; format: cell-based; settings: 293T cells overexpressing His6-HIPK2, two different doses
# T1 construct: host or cells: HEK 293T
# Experimental: 4×Smad binding element-driven firefly luciferase (SBE4-Luc) plasmid was purchased from Addgene (#16495). Renilla luciferase reporter plasmid (pRL) was purchased from Promega. Active domain deleted HIPK2 was previously described by Jin et al. [Nat Med, 18: 580-588]. The His6-HIPK2 construct was generated by PCR amplification of coding region using plasmid containing human HIPK2 gene (GeneCopoeia™) as the template.
# 293T cells were lysed in equilibration/wash buffer (50 mM sodium phosphate, 300 mM sodium chloride, 10 mM imidazole; pH 7.4) 48 hours after transfection of His6-tagged HIPK2 expression plasmid. Cleared cell lysate was incubated with HisPur Cobalt resin (Thermo Fisher Scientific, NY) on end-over-end rotator at 4° C. for 2 hours. After centrifugation (700×g, 2 min, 4° C.), the resin was washed 3 times in a wash buffer. The bound protein complexes were finally eluted with elution buffer (50 mM sodium phosphate, 500 mM sodium chloride, 150 mM imidazole; pH 7.4) and subjected to western blot analysis.
# Cells were lysed in M-PER mammalian protein extraction reagent (#78501, Thermo Fisher Scientific, NY) containing protease inhibitor cocktail (#11836153001, Roche) and phosphatase inhibitors (50 mM NaF, 10 mM β-glycerophosphate, 5 mM sodium pyrophosphate, 2 mM Na3VO4). Total protein concentration was measured using the Bradford reagent (#500-0006, Bio-Rad). […]
# Smad3 phosphorylation = assay: TGF-β1-induced Smad3 phosphorylation in hRTECs (western blot); format: cell-based, human; settings: pretreatment, TGF-β1 5 ng/ml for 20 minutes
# Experimental: (§1) HEK 293T (293T) cells (ATCC) were cultured in Dulbecco's Modified Eagle's medium (Invitrogen) containing 10% fetal bovine serum (FBS), 0.5% penicillin and streptomycin at 37° C. and 5% CO2 humidified environment. Human primary tubular cells (PromoCell GmbH, Heidelberg, Germany) were cultured in Renal Epithelial Cell Growth Medium-2 (Promocell GmbH) with supplements according to manufacturer's protocol human primary renal tubular epithelial cells with <5 passages were used for all studies. For HIV infection of hRTECs, pNL4-3:ΔG/P-EGFP, a gag/poi-deleted HIV-1 construct that contains EGFP in the gag open reading frame, and pHR-IRES-EGFP, a control EGFP construct, were used to generate the VSV-G pseudotyped virus. Cells were infected with HIV pseudotyped virus or control virus for 2 days before the treatment with test compound.
# Cells were lysed in M-PER mammalian protein extraction reagent (#78501, Thermo Fisher Scientific, NY) containing protease inhibitor cocktail (#11836153001, Roche) and phosphatase inhibitors (50 mM NaF, 10 mM β-glycerophosphate, 5 mM sodium pyrophosphate, 2 mM Na3VO4). Total protein concentration was measured using the Bradford reagent (#500-0006, Bio-Rad). Proteins were separated on SDA-PAGE and transferred to nitrocellulose membrane. […]
# [1] = test system: TGF-β1/Smad3 downstream target genes (Col I, CTGF, FN1, MMP2, PAI1, α-SMA); assay: Real-time PCR of TGF-β1/Smad3 downstream target genes in hRTECs; format: cell-based, human
# Experimental: as §1
# Total RNA was extracted using Trizol (Invitrogen). 400 ng of total RNA was reverse transcribed to cDNA using SuperScript III first strand synthesis system (Invitrogen).
# Quantitative RT-PCR was performed using 7500 Real-Time PCR System (Applied Biosystems). Gene level was normalized to glyceraldehyde 3-phosphate dehydrogenase (GAPDH) and expressed as fold change. The primer sets used were as follows:
# The effects of compounds of the invention on Smad3 phosphorylation and the expression of the downstream target genes of TGF-β/Smad3 pathway was also examined. […]
# T1 sequence (Q9H2X6 whole entry): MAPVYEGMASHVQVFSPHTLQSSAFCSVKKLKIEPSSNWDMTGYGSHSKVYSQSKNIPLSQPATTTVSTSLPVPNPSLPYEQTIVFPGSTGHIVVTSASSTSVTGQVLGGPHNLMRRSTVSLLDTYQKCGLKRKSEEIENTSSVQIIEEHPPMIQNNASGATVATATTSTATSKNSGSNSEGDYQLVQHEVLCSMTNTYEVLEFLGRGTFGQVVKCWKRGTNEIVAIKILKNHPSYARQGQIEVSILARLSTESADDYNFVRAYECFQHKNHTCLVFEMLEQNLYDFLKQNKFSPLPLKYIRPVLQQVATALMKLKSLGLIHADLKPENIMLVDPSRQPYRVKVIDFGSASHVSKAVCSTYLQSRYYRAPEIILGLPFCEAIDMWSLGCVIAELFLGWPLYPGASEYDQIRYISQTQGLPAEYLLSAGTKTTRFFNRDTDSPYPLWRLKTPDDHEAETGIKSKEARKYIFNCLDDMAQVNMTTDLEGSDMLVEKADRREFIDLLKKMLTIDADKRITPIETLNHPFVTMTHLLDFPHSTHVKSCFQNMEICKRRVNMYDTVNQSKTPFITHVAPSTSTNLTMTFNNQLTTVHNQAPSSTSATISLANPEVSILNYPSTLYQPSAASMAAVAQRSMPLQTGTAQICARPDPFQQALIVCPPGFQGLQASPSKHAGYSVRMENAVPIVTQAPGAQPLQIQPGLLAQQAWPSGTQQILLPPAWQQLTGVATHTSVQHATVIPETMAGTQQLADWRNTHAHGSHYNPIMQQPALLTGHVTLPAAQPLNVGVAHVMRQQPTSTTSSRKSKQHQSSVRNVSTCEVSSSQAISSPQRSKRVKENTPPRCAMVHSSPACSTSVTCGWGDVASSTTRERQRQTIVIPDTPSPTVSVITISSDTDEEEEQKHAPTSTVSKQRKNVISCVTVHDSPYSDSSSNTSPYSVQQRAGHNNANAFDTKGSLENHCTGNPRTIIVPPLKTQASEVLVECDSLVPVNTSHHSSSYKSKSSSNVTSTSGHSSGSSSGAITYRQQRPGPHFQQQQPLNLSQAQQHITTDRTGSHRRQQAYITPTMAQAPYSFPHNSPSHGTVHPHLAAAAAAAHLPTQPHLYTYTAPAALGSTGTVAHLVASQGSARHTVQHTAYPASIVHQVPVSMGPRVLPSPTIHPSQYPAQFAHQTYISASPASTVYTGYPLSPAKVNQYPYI
smiles,measurement,setting,value
"COc1ccc2cc(-c3nc(-c4ccc(Br)cc4)no3)cnc2c1 [Example 1, 3-(4-Bromophenyl)-5-(7-methoxyquinolin-3-yl)-1,2,4-oxadiazole]",interaction between Smad3 and HIPK2 (His6-HIPK2 pull-down),HIPK2-Smad3 interaction,reduced the interaction between Smad3 and HIPK2 in a dose-dependent manner
same,Smad3 phosphorylation induced by TGF-β1,Smad3 phosphorylation,gradually inhibited
same,"expression of Col I, CTGF, FN1, MMP2, PAI1 and α-SMA (real-time PCR)",[1]; absence of TGF-β1 stimulation,did not affect expression
same,"expression of Col I, CTGF, FN1, MMP2, PAI1 and α-SMA (real-time PCR)","[1]; treated with TGF-β1, increasing concentrations",progressively inhibited
